Entries after “also recorded” stand apart in the source; their conditions may differ.
How the values were obtained:
[1] = tested on: THP1 human macrophage cells; assay: Stimulation of THP-1 cells, IL-6 at 6 or 36 hours post stimulation; type: cell-based; conditions: THP1-derived macrophages, IFNγ + LPS, 0.1 to 500 μM, FIG. 9
[2] = tested on: EPC2 human esophageal keratinocytes; assay: Stimulation of EPC2-hTERT human esophageal keratinocytes with Poly(I:C); type: cell-based; conditions: 24 hours, increasing concentrations
[3] = Stability in hepatocytes (mouse); type: in vitro ADME; conditions: cryopreserved mouse hepatocytes (suspension)
Description: 10 mM of 1 was provided as a 1000× stock solution in dimethylsulfoxide (DMSO), and the stock solution was diluted to 1 mM with DMSO in 96-well plates. 30 mM of positive compounds (7-ethoxycoumarin and 7-hydroxycoumarin) were provided as a 1000× stock solution in DMSO, and the stock solution was diluted to 3 mM with DMSO in 96-well plates. 20 μL of 1000× stock solution of each compound were pipetted and was mixed with 380 μL of 45% MeOH/H2O to obtain 50 μM of 1 and 150 μM of the positive control compound solutions to form 50× intermediate solutions. 20 μL of 50× intermediate solution of each compound were pipetted and was mixed with […] of pre-warmed incubation medium to obtain 5 μM of 1 and 15 μM of the positive control compound solutions to form 5× working solutions. The incubation medium was Williams' Medium E (no phenol red) containing 2 mM L-glutamine and 25 mM HEPES. 10 μL of 5× working solutions of each compound were pipetted into appropriate wells in a 96-well plate for time points of 0 minutes, 15 minutes, 30 minutes, 60 minutes, and 90 minutes in duplicates. The plates with compounds were kept warm in an incubator at 37° C.
A cell suspension was prepared by thawing cryopreserved cells, isolating the cells, and suspending the cells in thawing medium. […]
The remaining percentage of 1 after incubation was calculated according to the following equation. […]

| half-life at 1 µM [3] [h] | Structure (SMILES) | percent inhibition relative to Control of IL-6 levels secreted [1] | percent inhibition relative to Stimulated of TSLP expression ([2]; FIG. 19A) | percent inhibition relative to Stimulated of IL-6 expression ([2]; FIG. 19B) | percent inhibition relative to Stimulated of MCP-1 expression ([2]; FIG. 19C) |
| --- | --- | --- | --- | --- | --- |
|  | C[C@H](CC/C=C/C(=O)OC(C)(C)C)O[C@@H]1O[C@@H](C)[C@H](O)C[C@H]1O [Compound 1, tert-butyl (2E,6R)-6-{[(2R,3R,5R,6S)-3,5-dihydroxy-6-methyloxan-2-yl]oxy}hept-2-enoate] | inhibited IL-6 expression in statistically significant, dose-dependent manner | statistically significant inhibition; also recorded: robust blocking | inhibited IL-6 expression in statistically significant, dose-dependent manner | inhibited MCP-1 expression in statistically significant, dose-dependent manner |
| > 3.61 | C[C@H](CC/C=C/C(=O)O)O[C@@H]1O[C@@H](C)[C@H](O)C[C@H]1O [ascr #7, reference compound] |  |  |  |  |
